Laboratory results published in patent publication US4816452A, “Aminothiazole substituted penicillins and antibacterial compositions thereof” (Beecham Group P.L.C., priority 1985, dated 1989).
≈ marks a conversion by molar mass, not a printed value.

Experiments:
[1] = test system: H. influenzae Q1; test: In vitro MIC, H. influenzae Q1; type: cell-based; settings: Haemophilus influenzae
Excerpt: (§1) |In Vitro Biological Data.

[2] = test system: H. influenzae NEMCl; test: In vitro MIC, H. influenzae NEMCl; type: cell-based; settings: Haemophilus influenzae
Excerpt: as §1

[3] = test system: B. catarrhalis Ravasio; test: In vitro MIC, B. catarrhalis Ravasio; type: cell-based; settings: Moraxella catarrhalis
Excerpt: as §1

[4] = test system: S. aureus Oxford; test: In vitro MIC, S. aureus Oxford; type: cell-based; settings: Staphylococcus aureus
Excerpt: as §1

[5] = test system: S. aureus MB9; test: In vitro MIC, S. aureus MB9; type: cell-based; settings: for MIC: Staphylococcus aureus; for (M.I.C): in vivo
Excerpt: as §1

[6] = test system: S. aureus V573; test: In vitro MIC, S. aureus V573 (methicillin resistant strain); type: cell-based; settings: Staphylococcus aureus
Excerpt: In Vitro Biological Data.
(+ = methicillin resistant strain)

[7] = test system: S. epidermidis PHLN20; test: In vitro MIC, S. epidermidis PHLN20; type: cell-based; settings: Staphylococcus epidermidis
Excerpt: as §1

[8] = test system: S. pneumoniae 1761; test: In vitro MIC, S. pneumoniae 1761; type: cell-based; settings: Streptococcus pneumoniae
Excerpt: as §1

[9] = test system: S. aureus Smith; test: M.I.C, S. aureus Smith; type: cell-based; settings: Staphylococcus aureus, in vivo
[10] = test system: S. aureus Smith; test: In vivo experimental infection in mice, S. aureus Smith; settings: Staphylococcus aureus, sc, subcutaneous, dosed at 1 and 5 hours after infection, 5 mice/group, read-out: Total S.C. CD50
Protocol: (§2) In Vivo Biological Data.
(§3) The compound of example 4 was tested in vivo in mice
(§4) against experimental infections. The results of these
(§5) *dosed at 1 and 5 hours after infection. 5 mice/group.

[11] = test system: S. aureus MB9; test: In vivo experimental infection in mice, S. aureus MB9; settings: Staphylococcus aureus, sc, subcutaneous, dosed at 1 and 5 hours after infection, 5 mice/group, read-out: Total S.C. CD50
Protocol: as §2, §3, §4, §5

[12] = Blood concentration in mice after subcutaneous administration; type: in vivo; settings: mouse, sc, 50 mg/kg
Protocol: The compound of example 4 was administered to mice (5) by the subcutaneous route at a dosage of 50 mg/kg and the blood concentration determined.

SMILES | MIC [1] | MIC [2] | MIC [3] | MIC [4] | MIC [5] | (M.I.C) [5] | MIC [6] | MIC [7] | MIC [8] | MIC [9] | ED50 [10] | ED50 [11] | AUC [12] | concentration at 5 min ([12]; 5 mins) | concentration at 10 min ([12]; 10 mins) | concentration at 20 min ([12]; 20 mins) | concentration at 0.5 h ([12]; 30 mins) | concentration at 1 h ([12]; 60 mins) | concentration at 2 h ([12]; 120 mins)
CC1(C)S[C@@H]2[C@H](NC(=O)/C(=N\OC3CCCCC3)c3csc(N)n3)C(=O)N2[C@H]1C(=O)O [Example 4, Sodium 6β-[2-(2-aminothiazol-4-yl)-(Z)-2-cyclohexyloxyiminoacetamido]penicillanate] | 0.12 µg/mL | 0.5 µg/mL | 0.25 µg/mL | 0.12 µg/mL | 0.5 µg/mL | 0.5 µg/mL | 4 µg/mL | 0.25 µg/mL | < 0.03 µg/mL | 0.12 µg/mL | 1.5 mg/kg | 4 mg/kg | 9520 ng·h/mL | 31000 ng/mL | 21800 ng/mL | 14300 ng/mL | 7700 ng/mL | 900 ng/mL | < 90 ng/mL
Cc1onc(-c2c(F)cccc2Cl)c1C(=O)N[C@@H]1C(=O)N2[C@@H]1SC(C)(C)[C@@H]2C(=O)O [flucloxacillin, reference compound] | 4 µg/mL (≈ 8.81 µM) | 16 µg/mL (≈ 35.3 µM) | 16 µg/mL (≈ 35.3 µM) | 0.25 µg/mL (≈ 0.551 µM) | 0.5 µg/mL (≈ 1.1 µM) | 0.5 µg/mL | 32 µg/mL (≈ 70.5 µM) | 0.25 µg/mL (≈ 0.551 µM) | 0.25 µg/mL (≈ 0.551 µM) | 0.25 µg/mL (≈ 0.551 µM) | 6 mg/kg | 17 mg/kg |  |  |  |  |  |  | 
